Broadly, the ED50 is the dose that gives a 50% effect, or the effect in half of the subjects. A higher ED50 goes with a need for a large dose.

The assay relates to angiotensin II-induced pressor responses. Description: Test C: inhibition of angiotensin II-induced pressor responses in terminally-anaesthetised or conscious rats. In kind it is in vivo. The conditions noted are these: iv, rat, i.v. administration. From the text: The antagonism of one or more of the physiological actions of AII and, in particular, the antagonism of the interaction of AII with the receptors which mediate its effects on a target tissue, may be assessed using one or more of the following, routine laboratory procedures: Test C: This in vivo test involves using terminally-anaesthetised or conscious rats in which an arterial catheter has been implanted under anaesthesia for the measurement of changes in blood pressure. The AII antagonistic effects of the test compound following oral or parenteral administration, are assessed against angiotensin II-induced pressor responses. To ensure that the effect is specific, the effect of the test compound on vasopressin-induced pressor responses may also be determined in the same preparation.

`Cc1cc(NCc2ccc(-c3ccccc3-c3nnn[nH]3)cc2)c(I)c(C)n1.Cl` [Example 1, 2,6-dimethyl-3-iodo-4-[(2'-(1H-tetrazol-5-yl)biphenyl-4-yl)methylamino]pyridine hydrochloride]: the ED50 is 0.047 mg/kg.

Values taken from US5236937A, “Pyridinyl compounds which are useful as angiotensin II antagonists” (Imperial Chemical Industries PLC, priority 1991, dated 1993).
